How the values were obtained:
Format in all cases: in vivo
Conditions in all cases: 250 g/h, evaluated after 13 days
Avena fatua (AVEFA) [1] = experiment: Post-emergence herbicidal glasshouse test, percentage damage
Summary of the method: (§1)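 Glasshouse, 24/16 °C, 14 h photoperiod, 65% humidity. Sprayed at 250 g/h pre- (1 d) or post-emergence (8 d); evaluated 13 d after spraying, 5-point damage scale.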

[2] = test system: Alopecurus myosuroides (ALOMY); experiment: as above
Summary of the method: as §1

Lolium perenne (LOLPE) [3] = experiment: as above
Summary of the method: as §1

Avena fatua (AVEFA) [4] = experiment: Pre-emergence herbicidal glasshouse test, percentage damage
Summary of the method: as §1

Setaria faberi (SETFA) [5] = experiment: as above
Summary of the method: as §1

[6] = test system: Echinochloa crus-galli (ECHCG); experiment: as above
Summary of the method: as §1

[7] = test system: Alopecurus myosuroides (ALOMY); experiment: as above
Summary of the method: as §1

Lolium perenne (LOLPE) [8] = experiment: as above
Summary of the method: as §1

Setaria faberi (SETFA) [9] = experiment: Post-emergence herbicidal glasshouse test, percentage damage
Summary of the method: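 Percentage damage was scored 13 days after treatment on a five-point scale (1=0-19% to 5=80-100%). Treatments were post-emergence sprays on 8-day-old wheat, barley and SETFA plants in a glasshouse (24/16 °C day/night, 14 h light, 65% humidity), using acetone/water 50:50 with 0.5% Tween 20 at the stated rates. Wheat additionally received cloquintocet-mexyl safener at 50 g/ha.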

[10] = test system: Echinochloa crus-galli (ECHCG); experiment: as above
Summary of the method: as §1

| Structure (SMILES) | AVEFA POST percentage damage (five point scale) (Avena fatua (AVEFA) [1]) | ALOMY POST percentage damage (five point scale) [2] | LOLPE POST percentage damage (five point scale) (Lolium perenne (LOLPE) [3]) | AVEFA PRE percentage damage (five point scale) (Avena fatua (AVEFA) [4]) | SETFA PRE percentage damage (five point scale) (Setaria faberi (SETFA) [5]) | ECHCG PRE percentage damage (five point scale) [6] | ALOMY PRE percentage damage (five point scale) [7] | LOLPE PRE percentage damage (five point scale) (Lolium perenne (LOLPE) [8]) | SETFA POST percentage damage (five point scale) (Setaria faberi (SETFA) [9]) | ECHCG POST percentage damage (five point scale) [10] |
| --- | --- | --- | --- | --- | --- | --- | --- | --- | --- | --- |
| CC#Cc1cc(C)c(C2=C(OC(=O)OC)CC3(CCN(C(=O)C(C)O)CC3)CC2=O)c(C)c1 (stereo not drawn) [Compound P31] | 5 (5=80-100%) | 5 (5=80-100%) | 5 (5=80-100%) | 5 (5=80-100%) | 5 (5=80-100%) | 5 (5=80-100%) | 5 (5=80-100%) | 5 (5=80-100%) | 5 (5=80-100%) |  |
| CC#Cc1cc(C)c(C2=C(OC(=O)OC)CC3(CCN(C(=O)C(C)OC)CC3)CC2=O)c(C)c1 (stereo not drawn) [Compound P32] | 5 (5=80-100%) | 5 (5=80-100%) | 5 (5=80-100%) | 5 (5=80-100%) | 5 (5=80-100%) | 5 (5=80-100%) | 5 (5=80-100%) | 5 (5=80-100%) | 5 (5=80-100%) |  |
| CC#Cc1cc(C)c(C2C(=O)CC3(CCN(S(=O)(=O)c4cccnc4)CC3)CC2=O)c(C)c1 [Compound A98] | 5 (5=80-100%) | 5 (5=80-100%) | 5 (5=80-100%) | 5 (5=80-100%) | 3 (3=40-59%) | 4 (4=60-79%) | 4 (4=60-79%) | 5 (5=80-100%) | 5 (5=80-100%) |  |
| CC#Cc1cc(C)c(C2=C(OC(=O)OC)CC3(CCN(S(=O)(=O)c4ccccn4)CC3)CC2=O)c(C)c1 [Compound P34] | 5 (5=80-100%) | 5 (5=80-100%) | 5 (5=80-100%) | 5 (5=80-100%) | 5 (5=80-100%) | 5 (5=80-100%) | 5 (5=80-100%) | 5 (5=80-100%) | 5 (5=80-100%) |  |
| CC#Cc1cc(C)c(C2=C(OC(=O)OC)CC3(CCN(C(=O)c4ncccn4)CC3)CC2=O)c(C)c1 [Compound P22] | 5 (5=80-100%) | 5 (5=80-100%) | 5 (5=80-100%) | 5 (5=80-100%) | 5 (5=80-100%) | 5 (5=80-100%) | 5 (5=80-100%) | 5 (5=80-100%) | 5 (5=80-100%) |  |
| CC#Cc1cc(C)c(C2=C(OC(=O)OC)CC3(CCN(C(=O)C(C)(C)OC)CC3)CC2=O)c(C)c1 [Compound P26] | 5 (5=80-100%) | 5 (5=80-100%) | 5 (5=80-100%) | 5 (5=80-100%) | 5 (5=80-100%) | 5 (5=80-100%) | 5 (5=80-100%) | 5 (5=80-100%) | 5 (5=80-100%) |  |
| CC#Cc1cc(C)c(C2C(=O)CC3(CCN(c4cncnc4)CC3)CC2=O)c(C)c1 [Compound A87] | 5 (5=80-100%) | 5 (5=80-100%) | 5 (5=80-100%) | 3 (3=40-59%) | 5 (5=80-100%) | 5 (5=80-100%) | 4 (4=60-79%) | 5 (5=80-100%) | 5 (5=80-100%) |  |
| CC#Cc1cc(C)c(C2=C(OC(=O)c3ncccn3)CC3(CCN(C(=O)c4ncccn4)CC3)CC2=O)c(C)c1 [Compound P23] | 5 (5=80-100%) | 5 (5=80-100%) | 5 (5=80-100%) | 4 (4=60-79%) | 5 (5=80-100%) | 5 (5=80-100%) | 5 (5=80-100%) | 5 (5=80-100%) | 5 (5=80-100%) |  |
| CC#Cc1cc(C)c(C2C(=O)CC3(CCN(C(=O)NC(=O)c4ccccn4)CC3)CC2=O)c(OC)c1 [Compound A79] | 5 (5=80-100%) | 5 (5=80-100%) | 5 (5=80-100%) | 5 (5=80-100%) | 4 (4=60-79%) | 4 (4=60-79%) | 4 (4=60-79%) | 5 (5=80-100%) | 5 (5=80-100%) |  |
| CC#Cc1cc(C)c(C2=C(OC(=O)OC)CC3(CCN(C(=O)C4(C#N)CC4)CC3)CC2=O)c(C)c1 [Compound P33] | 5 (5=80-100%) | 5 (5=80-100%) | 5 (5=80-100%) | 5 (5=80-100%) | 5 (5=80-100%) | 5 (5=80-100%) | 5 (5=80-100%) | 5 (5=80-100%) | 5 (5=80-100%) |  |
| CC#Cc1cc(C)c(C2=C(OC(=O)OC)CC3(CCN(C(=O)c4cnccn4)CC3)CC2=O)c(C)c1 [Compound P38] | 5 (5=80-100%) |  | 5 (5=80-100%) | 5 (5=80-100%) | 5 (5=80-100%) | 5 (5=80-100%) | 5 (5=80-100%) | 5 (5=80-100%) | 5 (5=80-100%) | 5 (5=80-100%) |
| CC#Cc1cc(C)c(C2=C(OC(=O)OC)CC3(CCN(C(=O)CC#N)CC3)CC2=O)c(C)c1 [Compound P43] | 5 (5=80-100%) |  | 5 (5=80-100%) | 5 (5=80-100%) | 5 (5=80-100%) | 5 (5=80-100%) | 5 (5=80-100%) | 5 (5=80-100%) | 5 (5=80-100%) | 4 (4=60-79%) |
